Measurements from US12691046B2, “Ester compositions” (Evonik Operations GmbH, priority 2021, dated 2026).

How the values were obtained:
[1] = Pigment/powder dispersion: increase in viscosity of the oil (Brookfield); format: physicochemical; details: for Increase in viscosity: 60% emollient + 40% pigment/powder mixture (Table 2), Brookfield, spindle 5, 50 rpm at 20° C.; for dispersibility of the pigment/powder mixture in the oil: judged from the increase in viscosity
Source text: Alkyl carboxylates according to the invention can help in the wetting of hydrophobized pigments and accordingly can be widely used in coloured cosmetics. The pigment wetting properties of cosmetic oils can be determined by measuring the viscosity of the pure oil, in comparison with the viscosity of the oil after dispersing a defined amount of pigments. The smaller the increase in viscosity thus determined, the better the property of an oil in wetting pigments on the surface and accordingly in dispersing.
The viscosities of the oils before addition of the pigment/powder mixture are determined using a Brookfield viscometer, spindle 5, 50 rpm at 20° C. After dispersion of the pigment/powder mixture, the viscosity is again determined in an identical way.

[2] = Mixtures of pure pigments with cosmetic oil: increase in viscosity (rheometer); format: physicochemical; details: for dispersibility of pure pigments in the oil: judged from the increase in viscosity; for Increase in viscosity, Carbon Black (CI77266, UniPure Black LC 902, Sensient): pigment:oil 15:85 w/w; for Increase in viscosity, Carbon Black (CI77266, UniPure Black LC 902, Sensient) / Increase in viscosity, (Yellow) Iron Oxide (CI 77492); Dimethicone (BYO-DS4, KOBO) / Increase in viscosity, (Black) Iron Oxides (CI 77499); Dimethicone (BYO-DS3, KOBO) / Increase in viscosity, Titanium Dioxide (CI 77891); Dimethicone (DHL-TRI-77891, US Cosmetics) / Increase in viscosity, (Red) Iron Oxides (CI 77491); Dimethicone (BYO-DS3, KOBO): rheometer MCR 302, 20° C., 1/100 sec, triplicate averaged; for Increase in viscosity, (Yellow) Iron Oxide (CI 77492); Dimethicone (BYO-DS4, KOBO): pigment:oil 40:60 w/w; for Increase in viscosity, (Black) Iron Oxides (CI 77499); Dimethicone (BYO-DS3, KOBO) / Increase in viscosity, Titanium Dioxide (CI 77891); Dimethicone (DHL-TRI-77891, US Cosmetics): pigment:oil 60:40 w/w; for Increase in viscosity, (Red) Iron Oxides (CI 77491); Dimethicone (BYO-DS3, KOBO): pigment:oil 65:35 w/w
Description: Here too, the pigment wetting properties of cosmetic oils can be determined by measuring the viscosity of the pure oil, in comparison with the viscosity of the oil after dispersing a defined amount of the pure pigment. The smaller the increase in viscosity thus determined, the better the property of an oil in wetting pigments on the surface and accordingly in dispersing.
The mixture is then stirred for 3 min at 3,500 rpm's and placed onto rheometer for measurement (Anton Paar Modular Compact Rheometer model MCR 302, 20° C., 1/100 sec). The viscosities of the neat cosmetics oils are also measured. Pigment mixtures and neat cosmetic oils are run in triplicate and the results averaged.
The increase in viscosity comparing the neat cosmetic oil and the pigment/cosmetic oil mixture is represented below (given in mPa·s): […]

| Structure (SMILES) | Increase in viscosity [1] | dispersibility of the pigment/powder mixture in the oil [1] | dispersibility of pure pigments in the oil [2] | Increase in viscosity, Carbon Black (CI77266, UniPure Black LC 902, Sensient) [2] | Increase in viscosity, (Yellow) Iron Oxide (CI 77492); Dimethicone (BYO-DS4, KOBO) [2] | Increase in viscosity, (Black) Iron Oxides (CI 77499); Dimethicone (BYO-DS3, KOBO) [2] | Increase in viscosity, Titanium Dioxide (CI 77891); Dimethicone (DHL-TRI-77891, US Cosmetics) [2] | Increase in viscosity, (Red) Iron Oxides (CI 77491); Dimethicone (BYO-DS3, KOBO) [2] |
| --- | --- | --- | --- | --- | --- | --- | --- | --- |
| CCCCCCCCCCCC(=O)OCCC(C)C [Dermofeel ® sensolv, Isoamyl Laurate] | 1820 mPa · s | improved | improved | 223 mPa·s | 195 mPa·s | 458 mPa·s | 121 mPa·s | 2238 mPa·s |
| CCCCCCCCCCCCCCCCOC(=O)C(CC)CCCC (stereo not shown) [Cetyl Ethylhexanoate] | 2520 mPa · s | improved | improved | 625 mPa·s | 2357 mPa·s | 8718 mPa·s | 807 mPa·s | 5393 mPa·s |
